{"source": "paper PMC1976386", "about": "(Molecular Microbiology, 2007)", "molecular_target": "CaKip1p (Candida albicans, UniProt A0A1D8PT88)", "settings": "read-out: Value"}
{"smiles": "Nc1ncnc2c1ncn2[C@@H]1O[C@H](COP(=O)(O)OP(=O)(O)OP(=O)(O)O)[C@@H](O)[C@H]1O", "note": "[ATP]", "values": [{"measurement": "Km", "value": "7.4 ± 0.7", "unit": "µM"}]}
